From paper PMC7287031 (Pharmacology Research & Perspectives, 2020)
Where two headings read alike, the source gives them in different places.

How the values were obtained:
[1] = In vitro plasma protein binding (ultrafiltration), dog; type: in vitro ADME; conditions: 100 and 1000 ng/mL
Experimental: Stock solutions were spiked into plasma to achieve the intended concentrations. After incubation for 1 hour at 37°C under constant gentle agitation, the spiked plasma samples (n = 3) were centrifuged (2000 g, 10 min, 37°C) in pre‐warmed Centrifree devices. Total radioactivity was determined in the ultrafiltrate (Cu, concentration of unbound compound) and in the sample introduced into the reservoir before ultrafiltration (Cp). The unbound (fu) and the bound (fb) fraction in plasma were calculated as follows: fu (%) = Cu/Cp × 100; fb (%) = 100‐Fu (%).

[2] = Rat milk excretion study; type: in vivo; conditions: female, milk (relative to plasma), lactating rats, read-out: milk exposure (AUCinf) relative to plasma exposure
Experimental: (§1) Metabolite profiling was conducted on plasma, urine, bile, and feces samples in the rat and dog ADME studies, and further metabolite profiling on plasma and milk was conducted in a dedicated rat milk excretion study.
(§2) Plasma samples obtained from these studies were extracted with equal volumes of acetonitrile. Additional extractions of the protein pellet with acetonitrile and/or acetone were conducted as needed to maximize radioactivity recovery. Feces samples were initially extracted with two to four volumes of acetonitrile. Additional extractions of the pellet following centrifugation and removal of supernatant were conducted with acetonitrile and/or acetone as needed to maximize radioactivity recovery. Urine and bile samples were analyzed directly following centrifugation. Radioactivity recoveries following the centrifugation step were measured by LSC. Milk samples were extracted with two volumes of acetonitrile, following centrifugation and removal of supernatant, the pellets were re‐suspended in 100 µL of water and re‐extracted with 200 µL acetonitrile.

[3] = Dog ADME study: excretion, mass balance, metabolite profiling with radiolabeled ribociclib; type: in vivo
Experimental: ADME studies (including QWBA in pigmented and non‐pigmented rats) using radiolabeled ribociclib were conducted in rat and dog. Relevant institutional and national guides for the care and use of laboratory animals were followed.
as §1, §2
Metabolite profiling in the ADME studies was conducted using liquid chromatography‐mass spectrometry. Radioactivity profiles were generated by diversion of the majority of the post‐column flow into 96‐well yttrium silicate scintillation‐coated plates (Deepwell Lumaplates; Perkin Elmer Life and Analytical Sciences Inc), by means of Gilson FC204 fraction collectors (Gilson). Metabolites were identified by mass spectrometry (Waters QTOF operating under MassLynx 4.1) and, where feasible, by comparison with authentic reference standards.

[4] = Human ADME study: PK of ribociclib and LEQ803 in plasma and urine (validated bioanalytical assay); type: in vivo; conditions: for AUC(0-inf) / AUC(0-t) / Cmax / half-life: plasma, po, 600 mg
Experimental: Subjects continued to fast for 4 hours after drug administration.
Plasma aliquots at each time point were subjected to protein precipitation with three volumes of acetonitrile containing 0.1% (v:v) formic acid, followed by dilution and analysis by liquid chromatography‐tandem mass spectrometry in selected reaction monitor‐positive ion mode using heated electrospray ionization as the ionization technique. For urine aliquots, six volumes of acetonitrile containing 0.1% (v:v) formic acid were added, followed by dilution and analysis in the same way as for plasma. Components were separated using a YMC‐Triart C18 (2.0 x 30 mm, 1.9 µm) column (YMC Co. Ltd.). […] Mobile phase A was 0.1% formic acid in H2O while mobile phase B was 0.1% formic acid in ACN:Isopropanol 8:2 v:v.

[5] = Human ADME study: total radioactivity PK in blood and plasma (AMS); type: in vivo; conditions: single oral 600 mg [14C] ribociclib, N=6
Experimental: Subjects continued to fast for 4 hours after drug administration. […] Urine was collected from 0‐6, 6‐12, and 12‐24 h post dose, then over 24‐hour intervals until 504 hours post dose. Feces was collected over 24‐h intervals until 504 hours post dose, during which time the volunteers were confined to the clinic. Vomitus was also scheduled to be collected for 12 hours post dosing. However, no volunteers vomited during the study. […] Electrostatics Corporation 1.5SDH Compact AMS System (Middleton) in the bioanalytical laboratory of Accium BioSciences, Seattle, WA, USA. A known aliquot of each blood and plasma specimen was transferred to a prebaked quartz tube. […] An AMS batch consisted of unknown specimens and chemical blank(s) to monitor for any in‐process contamination. The samples were then dried using vacuum centrifugation and submitted to graphitization. Graphitization consisted of combustion of samples followed by reduction to graphite according to published methods. ^12 Briefly, approximately 200‐mg copper oxide was added to each combustion tube containing the dried sample residue. The combustion tubes were flame‐sealed under vacuum and combusted at approximately 900°C to form carbon dioxide (CO2). Combusted samples were then attached to a disposable transfer system connected to a septa‐sealed vial. […]

[6] = oral dosing of radiolabeled ribociclib

In the case of CN(C)C(=O)c1cc2cnc(Nc3ccc(N4CCNCC4)cn3)nc2n1C1CCCC1 [ribociclib, Ribociclib], the fraction unbound at 1 h [1] is reported as 0.34 ± 0.01, the Kp [2] is reported as 3.6 and the “Recovery of radioactivity in mass balance study” value [3] is reported as “approximately 90%”. The “radioactivity found in feces” value [3, 6] was 68.8%, the “radioactivity found in urine” value [3, 6] was 18.5% and the ribociclib in feces ([3]; p.o.) was 10.7 % of the oral dose. For the same compound, the “unchanged ribociclib in urine” value ([3]; p.o.) was 13.4 % of the dose, the “Ribociclib in urine by validated bioanalytical assay” value ([4]; human) was 6.75 % of the dose and the “renal clearance lower than non-renal clearance” value ([4]; human) was “more than 10 fold”. For the same compound, the Tmax ([4]; human plasma, bioanalytical assay, single oral 600 mg, N=6, read-out: tmax, median (range)) was 1.75 h, the AUC(0-inf) ([4]; human, human plasma, bioanalytical assay, single oral 600 mg, N=6, read-out: AUCinf, arithmetic mean (CV %)) was 8700 ng·h/mL and the AUC(0-inf) ([4]; human, human plasma, bioanalytical assay, single oral 600 mg, N=6, read-out: AUCinf, median) was 8880 ng·h/mL. The AUC(0-t) ([4]; human, human plasma, bioanalytical assay, single oral 600 mg, N=6, read-out: AUClast, arithmetic mean (CV %)) was 8600 ng·h/mL, the AUC(0-t) ([4]; human, human plasma, bioanalytical assay, single oral 600 mg, N=6, read-out: AUClast, median) was 8780 ng·h/mL and the Cmax ([4]; human, human plasma, bioanalytical assay, single oral 600 mg, N=6, read-out: Cmax, arithmetic mean (CV %)) was 507 ng/mL. The Cmax ([4]; human, human plasma, bioanalytical assay, single oral 600 mg, N=6, read-out: Cmax, median) was 518 ng/mL, the half-life ([4]; human, human plasma, bioanalytical assay, single oral 600 mg, N=6, read-out: t½, arithmetic mean (CV %) (converted)) was 2.28 days and the half-life ([4]; human, human plasma, bioanalytical assay, single oral 600 mg, N=6, read-out: t½, median (converted)) was 2.06 days. For the same compound, the “CL/F, median” value ([4]; human, single oral 600 mg) was 70.2 L/h, the CL renal ([4]; male, plasma and urine, human, single oral 600 mg, read-out: renal clearance, median (converted)) was 92.5 mL/min and the “tlast of total radioactivity, median” value ([5]; human blood) was 504 h. For the same compound, the “tlast of total radioactivity, median” value ([5]; human plasma) was 504 h.
